Test results from patent US8217035B2, “Pyrimidine derivatives used as PI-3-kinase inhibitors” (Novartis AG, priority 2006, dated 2012).
pEC50, pIC50: −log10 of the molar value.

tested on: A2780 ovarian cancer cells; test: Cellular proliferation in A2780 cells, Cell Titer Glo (Biological Method 4); format: cell-based; conditions: Homo sapiens; ovarian cancer cell line A2780, Biological Method 4
In short: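 A2780 cells seeded at 1,000/well in DMEM with 10% FBS, at least 2 h before compound, then exposed 72 h at 37 °C, 5% CO2. Viable cells measured by Cell Titer Glo luminescence; EC50 calculated from duplicate conditions.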

pEC50, > 5.00:
Nc1ccc(-c2cc(-c3ccc(N)nc3)nc(N3CCOCC3)n2)cn1 [Compound 245]
Nc1cc(C(F)(F)F)c(-c2cc(N3CCOC(c4cccnc4)C3)nc(N3CCOCC3)n2)cn1 (stereo not drawn) [Compound 338]
Nc1ccc(-c2cc(Nc3ccnc4cc(C(F)(F)F)ccc34)nc(N3CCOCC3)n2)cn1 [Compound 380]
CC(=O)N1CCc2ccc(Nc3cc(-c4ccc(N)nc4)nc(N4CCOCC4)n3)cc21 [Compound 356]
CN1CCN(Cc2cncc(-c3cc(-c4ccc(N)nc4)nc(N4CCOCC4)n3)c2)CC1 [Compound 273]
Nc1ccc(-c2cc(-c3cn[nH]c3)nc(N3CCOCC3)n2)cn1 [Compound 248]
Nc1cc(C(F)(F)F)c(-c2cc(Nc3cccc(S(=O)(=O)CCO)c3)nc(N3CCOCC3)n2)cn1 [Compound 318]
COc1ccccc1Nc1cc(-c2cnc(N)nc2)nc(N2CCOCC2)n1 [Compound 306]
Nc1ncc(-c2cc(Nc3ccccc3C(F)(F)F)nc(N3CCOCC3)n2)cn1 [Compound 393]
Nc1ccc(-c2cc(Nc3ccc4nccnc4c3)nc(N3CCOCC3)n2)cn1 [Compound 377]
NC(=O)c1ccccc1Nc1cc(-c2ccc(N)nc2)nc(N2CCOCC2)n1 [Compound 352]
Nc1cc(C(F)(F)F)c(-c2cc(Nc3cccc(S(=O)(=O)N4CCOCC4)c3)nc(N3CCOCC3)n2)cn1 [Compound 316]
Nc1ccc(-c2cc(Nc3cccnc3)nc(N3CCOCC3)n2)cn1 [Compound 378]
Nc1ccc(-c2cc(N3CCOC(c4ccccc4)C3)nc(N3CCOCC3)n2)cn1 (stereo not drawn) [Compound 371]
Nc1cc(C(F)(F)F)c(-c2cc(N3CCOC(c4ccc(C(F)(F)F)cc4)C3)nc(N3CCOCC3)n2)cn1 (stereo not drawn) [Compound 334]
N#Cc1cc(-c2cnc(N)nc2)nc(N2CCOCC2)n1 [Compound 237]
NC(=O)c1ccnc(Nc2cc(-c3cnc(N)cc3C(F)(F)F)nc(N3CCOCC3)n2)c1 [Compound 242]
Nc1ccc(-c2cc(Nc3ccc4c(c3)OCCO4)nc(N3CCOCC3)n2)cn1 [Compound 386]
Nc1ncc(-c2cc(-c3cccc4ncccc34)nc(N3CCOCC3)n2)cn1 [Compound 280]
COc1cccc(Nc2cc(-c3cnc(N)nc3)nc(N3CCOCC3)n2)c1 [Compound 308]
COc1nc2ccccc2cc1Nc1cc(-c2ccc(N)nc2)nc(N2CCOCC2)n1 [Compound 287]
Nc1cc(C(F)(F)F)c(-c2cc(Nc3cc(Cl)ccn3)nc(N3CCOCC3)n2)cn1 [Compound 241]

pEC50, > 4.60:
Nc1cc(C(F)(F)F)c(-c2cc(N3CCOC(C(=O)NC4CCOCC4)C3)nc(N3CCOCC3)n2)cn1 (stereo not drawn) [Compound 329]
NC(=O)c1ccccc1-c1cc(-c2ccc(N)nc2)nc(N2CCOCC2)n1 [Compound 254]
Nc1ccc(-c2cc(Nc3ccc(OC(CO)CO)nc3)nc(N3CCOCC3)n2)cn1 [Compound 271]
Nc1cc(C(F)(F)F)c(-c2cc(N3CCOC(C(=O)N4CCOCC4)C3)nc(N3CCOCC3)n2)cn1 (stereo not drawn) [Compound 325]
CNC(=O)c1cc(-c2cnc(N)nc2)nc(N2CCOCC2)n1 [Compound 232]
Nc1cc(C(F)(F)F)c(-c2nc(N3CCOCC3)nc(N3CCOCC3)c2F)cn1 [Compound 313]
Nc1ccc(-c2cc(Nc3cc(F)ccn3)nc(N3CCOCC3)n2)cn1 [Compound 351]
CC(C)NC(=O)C1CN(c2cc(-c3cnc(N)cc3C(F)(F)F)nc(N3CCOCC3)n2)CCO1 (stereo not drawn) [Compound 330]
CN(C)C(=O)C1CN(c2cc(-c3cnc(N)cc3C(F)(F)F)nc(N3CCOCC3)n2)CCO1 (stereo not drawn) [Compound 326]

pEC50, > 6.00:
COc1cncc(-c2cc(-c3ccc(N)nc3)nc(N3CCOCC3)n2)c1 [Compound 275]
CC(=O)c1ccc(Nc2cc(-c3ccc(N)nc3)nc(N3CCOCC3)n2)cc1 [Compound 359]

biological target: PI3 kinase alpha (Homo sapiens, UniProt P42336); test: PI3K ATP depletion assay (Biological Method 1, Assay 3; KinaseGlo luminescence); format: biochemical; conditions: ATP depletion assay, Biological Method 1; read-out: PI3 Kinase Alpha, IC50
In short: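 Compound in DMSO was mixed with 10 nM PI3 kinase and 5 μg/mL phosphatidylinositol, and the reaction was started with 2 μM ATP. It ran to about 50% ATP depletion and was stopped with KinaseGlo.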

Chain of PI3 kinase alpha (P42336 whole entry): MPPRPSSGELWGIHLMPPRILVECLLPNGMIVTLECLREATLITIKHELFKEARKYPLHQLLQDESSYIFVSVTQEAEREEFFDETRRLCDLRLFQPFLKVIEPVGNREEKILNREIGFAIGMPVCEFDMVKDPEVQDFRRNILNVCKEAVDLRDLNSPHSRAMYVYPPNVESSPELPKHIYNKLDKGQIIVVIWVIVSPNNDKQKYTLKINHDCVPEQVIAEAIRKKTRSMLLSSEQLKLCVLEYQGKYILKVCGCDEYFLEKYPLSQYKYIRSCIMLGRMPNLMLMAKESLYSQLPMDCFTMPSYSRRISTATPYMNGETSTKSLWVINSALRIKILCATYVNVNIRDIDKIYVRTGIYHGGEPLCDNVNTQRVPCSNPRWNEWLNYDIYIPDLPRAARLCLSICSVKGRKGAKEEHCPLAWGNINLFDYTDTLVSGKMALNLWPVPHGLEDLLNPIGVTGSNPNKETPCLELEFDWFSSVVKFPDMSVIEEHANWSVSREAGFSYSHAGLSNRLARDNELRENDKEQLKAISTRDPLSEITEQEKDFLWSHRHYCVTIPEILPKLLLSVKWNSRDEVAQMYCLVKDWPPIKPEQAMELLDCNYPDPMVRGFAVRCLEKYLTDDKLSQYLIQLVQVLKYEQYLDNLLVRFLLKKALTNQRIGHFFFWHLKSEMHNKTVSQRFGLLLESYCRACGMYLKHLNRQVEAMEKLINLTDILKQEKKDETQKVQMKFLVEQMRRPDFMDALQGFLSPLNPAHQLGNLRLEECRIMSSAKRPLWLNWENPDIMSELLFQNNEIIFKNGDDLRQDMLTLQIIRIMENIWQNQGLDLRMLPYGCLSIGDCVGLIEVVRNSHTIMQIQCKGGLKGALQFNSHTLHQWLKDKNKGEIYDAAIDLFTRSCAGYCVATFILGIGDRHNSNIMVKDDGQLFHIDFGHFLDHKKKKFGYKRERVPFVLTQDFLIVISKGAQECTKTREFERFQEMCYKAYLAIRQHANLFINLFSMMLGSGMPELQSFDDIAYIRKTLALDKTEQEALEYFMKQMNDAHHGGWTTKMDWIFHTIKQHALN
Chain of PI3 kinase alpha (P27986 whole entry partner): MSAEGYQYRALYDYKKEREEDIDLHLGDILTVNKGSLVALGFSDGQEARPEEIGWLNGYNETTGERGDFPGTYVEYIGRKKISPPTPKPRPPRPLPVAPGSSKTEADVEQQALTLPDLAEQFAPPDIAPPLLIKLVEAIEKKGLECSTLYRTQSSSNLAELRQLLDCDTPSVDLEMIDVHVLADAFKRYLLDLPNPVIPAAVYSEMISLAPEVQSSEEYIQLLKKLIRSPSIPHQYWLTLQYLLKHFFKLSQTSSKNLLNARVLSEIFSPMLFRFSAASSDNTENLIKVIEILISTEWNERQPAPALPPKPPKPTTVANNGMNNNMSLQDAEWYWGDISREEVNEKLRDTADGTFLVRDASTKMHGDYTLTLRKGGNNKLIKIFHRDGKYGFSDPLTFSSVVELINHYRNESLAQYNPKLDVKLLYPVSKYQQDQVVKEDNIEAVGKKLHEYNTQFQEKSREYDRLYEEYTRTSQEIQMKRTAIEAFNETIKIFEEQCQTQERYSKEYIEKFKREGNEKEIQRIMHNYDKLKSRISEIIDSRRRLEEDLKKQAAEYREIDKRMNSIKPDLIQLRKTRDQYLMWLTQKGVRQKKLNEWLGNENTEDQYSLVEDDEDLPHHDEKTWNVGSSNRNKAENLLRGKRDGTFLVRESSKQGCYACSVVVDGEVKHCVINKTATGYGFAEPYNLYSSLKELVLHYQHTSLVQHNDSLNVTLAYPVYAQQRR

pIC50, > 6.00:
Nc1ccc(-c2cc(-c3ccc(N)nc3)nc(N3CCOCC3)n2)cn1 [Compound 245]
Nc1cc(C(F)(F)F)c(-c2cc(N3CCOC(c4cccnc4)C3)nc(N3CCOCC3)n2)cn1 (stereo not drawn) [Compound 338]
Nc1ccc(-c2cc(Nc3ccnc4cc(C(F)(F)F)ccc34)nc(N3CCOCC3)n2)cn1 [Compound 380]
CC(=O)N1CCc2ccc(Nc3cc(-c4ccc(N)nc4)nc(N4CCOCC4)n3)cc21 [Compound 356]
CN1CCN(Cc2cncc(-c3cc(-c4ccc(N)nc4)nc(N4CCOCC4)n3)c2)CC1 [Compound 273]
Nc1cc(C(F)(F)F)c(-c2cc(N3CCOC(C(=O)NC4CCOCC4)C3)nc(N3CCOCC3)n2)cn1 (stereo not drawn) [Compound 329]
Nc1ccc(-c2cc(-c3cn[nH]c3)nc(N3CCOCC3)n2)cn1 [Compound 248]
Nc1cc(C(F)(F)F)c(-c2cc(Nc3cccc(S(=O)(=O)CCO)c3)nc(N3CCOCC3)n2)cn1 [Compound 318]
NC(=O)c1ccccc1-c1cc(-c2ccc(N)nc2)nc(N2CCOCC2)n1 [Compound 254]
COc1ccccc1Nc1cc(-c2cnc(N)nc2)nc(N2CCOCC2)n1 [Compound 306]
Nc1ncc(-c2cc(Nc3ccccc3C(F)(F)F)nc(N3CCOCC3)n2)cn1 [Compound 393]
Nc1ccc(-c2cc(Nc3ccc(OC(CO)CO)nc3)nc(N3CCOCC3)n2)cn1 [Compound 271]
Nc1ccc(-c2cc(Nc3ccc4nccnc4c3)nc(N3CCOCC3)n2)cn1 [Compound 377]
NC(=O)c1ccccc1Nc1cc(-c2ccc(N)nc2)nc(N2CCOCC2)n1 [Compound 352]
Nc1cc(C(F)(F)F)c(-c2cc(Nc3cccc(S(=O)(=O)N4CCOCC4)c3)nc(N3CCOCC3)n2)cn1 [Compound 316]
Nc1ccc(-c2cc(Nc3cccnc3)nc(N3CCOCC3)n2)cn1 [Compound 378]
Nc1cc(C(F)(F)F)c(-c2cc(N3CCOC(C(=O)N4CCOCC4)C3)nc(N3CCOCC3)n2)cn1 (stereo not drawn) [Compound 325]
Nc1ccc(-c2cc(N3CCOC(c4ccccc4)C3)nc(N3CCOCC3)n2)cn1 (stereo not drawn) [Compound 371]
CNC(=O)c1cc(-c2cnc(N)nc2)nc(N2CCOCC2)n1 [Compound 232]
Nc1cc(C(F)(F)F)c(-c2cc(N3CCOC(c4ccc(C(F)(F)F)cc4)C3)nc(N3CCOCC3)n2)cn1 (stereo not drawn) [Compound 334]
Nc1cc(C(F)(F)F)c(-c2nc(N3CCOCC3)nc(N3CCOCC3)c2F)cn1 [Compound 313]
N#Cc1cc(-c2cnc(N)nc2)nc(N2CCOCC2)n1 [Compound 237]
NC(=O)c1ccnc(Nc2cc(-c3cnc(N)cc3C(F)(F)F)nc(N3CCOCC3)n2)c1 [Compound 242]
Nc1ccc(-c2cc(Nc3ccc4c(c3)OCCO4)nc(N3CCOCC3)n2)cn1 [Compound 386]
COc1cncc(-c2cc(-c3ccc(N)nc3)nc(N3CCOCC3)n2)c1 [Compound 275]
Nc1ncc(-c2cc(-c3cccc4ncccc34)nc(N3CCOCC3)n2)cn1 [Compound 280]
Nc1ccc(-c2cc(Nc3cc(F)ccn3)nc(N3CCOCC3)n2)cn1 [Compound 351]
COc1cccc(Nc2cc(-c3cnc(N)nc3)nc(N3CCOCC3)n2)c1 [Compound 308]
COc1nc2ccccc2cc1Nc1cc(-c2ccc(N)nc2)nc(N2CCOCC2)n1 [Compound 287]
Nc1cc(C(F)(F)F)c(-c2cc(Nc3cc(Cl)ccn3)nc(N3CCOCC3)n2)cn1 [Compound 241]
CC(C)NC(=O)C1CN(c2cc(-c3cnc(N)cc3C(F)(F)F)nc(N3CCOCC3)n2)CCO1 (stereo not drawn) [Compound 330]
CC(=O)c1ccc(Nc2cc(-c3ccc(N)nc3)nc(N3CCOCC3)n2)cc1 [Compound 359]
CN(C)C(=O)C1CN(c2cc(-c3cnc(N)cc3C(F)(F)F)nc(N3CCOCC3)n2)CCO1 (stereo not drawn) [Compound 326]
